# Source: ChEMBL document CHEMBL1129683, “Thermodynamic aspects of hydrophobicity and the blood-brain barrier permeability studied with a gel filtration chromatography” (J Med Chem, 1996)
# Experiment: Micelle/water partition coefficient (Pmic) of the compound was determined
# Type: physicochemical
# Details: buffer
row,SMILES,Log Pmic
1,NC(N)=O [UREA],-0.12
2,CCc1nc(N)nc(N)c1-c1ccc(Cl)cc1 [PYRIMETHAMINE],2.51
3,COc1cccc2c1C(=O)c1c(O)c3c(c(O)c1C2=O)C[C@@](O)(C(=O)CO)C[C@@H]3O[C@H]1C[C@H](N)[C@H](O)[C@H](C)O1 [DOXORUBICIN],1.9
4,CN1CC(=O)NC1=N [CREATININE],-0.3
5,NC=O [FORMAMIDE],-0.35
6,CC[C@]1(O)C[C@H]2CN(CCc3c([nH]c4ccccc34)[C@@](C(=O)OC)(c3cc4c(cc3OC)N(C=O)[C@H]3[C@@](O)(C(=O)OC)[C@H](OC(C)=O)[C@]5(CC)C=CCN6CC[C@]43[C@@H]65)C2)C1 [VINCRISTINE],2.48
7,CNC(=O)c1cccnc1 [NICOTINYL METHYLAMIDE],0.39
8,Cc1cc(=O)n(-c2ccccc2)n1C [ANTIPYRINE],0.58
9,O=c1[nH]c(=O)n(C2CCCO2)cc1F (configuration not stated) [TEGAFUR],0.7
10,O=c1[nH]cc(F)c(=O)[nH]1 [FLUOROURACIL],0.21
11,Cc1ncc([N+](=O)[O-])n1CCO [METRONIDAZOLE],0.54
12,NC(N)=S [THIOUREA],0.48
